The text below walks through data of PubChem BioAssay (NCI).

Among the test systems are IGROV1 ovarian; NCI-H23 lung; OVCAR-4 ovarian; OVCAR-8 ovarian; RXF 393 renal; SK-MEL-5 melanoma; SR leukemia; UACC-257 melanoma; DMS 273 small cell lung; LXFL 529 NSCLC.
Holding throughout (assay): NCI tumour cell line growth inhibition, 48 h

Several values for one entry are separate records, joined by “and”; a condition that tells them apart may be missing. Identical values can stand only once.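 Each compound was tested at five concentrations against cells in 96-well plates for 48 hours. GI50 = concentration required for 50% inhibition of growth. TGI: concentration producing complete growth inhibition.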

Turning to `C[C@]12CC[C@@H]3c4cc(-c5ccc(F)cc5)c(O)cc4CC[C@H]3[C@@H]1CC[C@@H]2O`, the GI50 is 6 µM in the assay with IGROV1 ovarian; 13.8 µM in the assay on NCI-H23 lung; 4.04 µM in the assay on OVCAR-4 ovarian; 8.02 µM in the assay with OVCAR-8 ovarian; 2.66 µM in the assay with RXF 393 renal; 9.41 µM in the assay on SK-MEL-5 melanoma. Besides, the GI50 in the assay with SR leukemia is 4.75 µM; in the assay with UACC-257 melanoma it was 15.3 µM. Besides, the TGI was 20.4 µM with IGROV1 ovarian; 37.8 µM with NCI-H23 lung; 17.1 µM in the assay with OVCAR-4 ovarian; 37.3 µM in the assay on OVCAR-8 ovarian; 5.9 µM in the assay on RXF 393 renal; 21.2 µM with SK-MEL-5 melanoma. The TGI with SR leukemia came out at 24.5 µM; in the assay with UACC-257 melanoma, 29.6 µM.

As to `C=C(CN1CCN(c2cccc(C(F)(F)F)n2)CC1)c1ccc(C(=O)Nc2ccccc2N)cc1`, the GI50 in the assay on IGROV1 ovarian was 2.01 µM and 0.365 µM; with NCI-H23 lung, 14.1 µM and 1.8 µM; in the assay on OVCAR-4 ovarian, 8.37 µM and 1.41 µM; in the assay on OVCAR-8 ovarian, 4.25 µM and 1.09 µM; with RXF 393 renal it was 0.672 µM and 2.12 µM; in the assay with SK-MEL-5 melanoma it was 0.403 µM and 0.397 µM. For the same compound, in the assay with SR leukemia, the GI50 was more than 39.1 µM. For the same compound, the TGI was 26.9 µM and 7.29 µM in the assay on IGROV1 ovarian; more than 100 µM in the assay on NCI-H23 lung; more than 100 µM in the assay on OVCAR-4 ovarian; 55.4 µM and > 79 µM in the assay with OVCAR-8 ovarian; 26.1 µM and > 100 µM with RXF 393 renal; more than 100 µM with SR leukemia. Moreover, the TGI with UACC-257 melanoma was more than 100 µM.

Turning to `Cc1ccc(Cc2cnc(NC(=O)/C=C/c3cccc(C)c3)s2)cc1`, the GI50 in the assay on IGROV1 ovarian is 0.334 µM; in the assay with NCI-H23 lung, 0.322 µM; in the assay with OVCAR-4 ovarian, 0.842 µM; with OVCAR-8 ovarian, 0.447 µM; in the assay with RXF 393 renal it was 0.106 µM; in the assay with SK-MEL-5 melanoma, 0.404 µM. Moreover, the GI50 in the assay on SR leukemia was 0.0449 µM; in the assay on UACC-257 melanoma, more than 42.3 µM. In addition, the TGI is 15.5 µM with IGROV1 ovarian; more than 50.1 µM in the assay with NCI-H23 lung; 4.71 µM in the assay with OVCAR-4 ovarian; more than 44.5 µM in the assay with OVCAR-8 ovarian; 0.671 µM in the assay with RXF 393 renal; more than 100 µM in the assay on SK-MEL-5 melanoma. The TGI with SR leukemia is 2.23 µM; in the assay with UACC-257 melanoma, more than 100 µM.

On to `Cc1nc2sc(C(=O)Nc3cccc4ccccc34)c(N)c2cc1C(O)c1ccccc1` (stereo unspecified), for which the GI50 in the assay with IGROV1 ovarian is 0.0651 µM; with NCI-H23 lung it was 0.104 µM; in the assay on OVCAR-4 ovarian it was 0.215 µM; with OVCAR-8 ovarian it was 0.101 µM; in the assay on RXF 393 renal, 0.0307 µM; with SK-MEL-5 melanoma, 0.0993 µM. The GI50 is 0.04 µM in the assay on SR leukemia and 1.5 µM with UACC-257 melanoma. Besides, the TGI in the assay on IGROV1 ovarian was 12.4 µM; in the assay with NCI-H23 lung, 15.3 µM; in the assay on OVCAR-4 ovarian it was 44.2 µM; with OVCAR-8 ovarian, 71.2 µM; in the assay on RXF 393 renal, 24.7 µM; with SK-MEL-5 melanoma, 0.717 µM. The values for the TGI with SR leukemia and with UACC-257 melanoma were more than 43 µM and 26.4 µM, respectively.

`Cn1nc(-c2ccccc2)c(C(=O)/C=C/c2ccc(Cl)cc2)c(N2CCCCC2)c1=O`: the TGI with DMS 273 small cell lung was 6.75 µM; with IGROV1 ovarian, 4.95 µM; in the assay with LXFL 529 NSCLC it was 3.33 µM; with NCI-H23 lung it was 5.48 µM; in the assay with OVCAR-8 ovarian, 16.5 µM; with RXF 393 renal it was 2.8 µM. For the same compound, the TGI with SK-MEL-5 melanoma was 3.75 µM.

For `CNC(=O)c1ccc(N2C(=S)N(c3ccc(C#N)c(C(F)(F)F)c3)C(=O)C2(C)C)cc1F`, the GI50 was 40.3 µM in the assay with IGROV1 ovarian; 30.2 µM in the assay with NCI-H23 lung; 31.8 µM with OVCAR-4 ovarian; 50.2 µM in the assay on OVCAR-8 ovarian; 35.8 µM in the assay on RXF 393 renal; 20.3 µM in the assay on SK-MEL-5 melanoma. The figures for the GI50 in the assay with SR leukemia and in the assay on UACC-257 melanoma were 17.9 µM and 35.1 µM, respectively. Besides, the TGI in the assay on IGROV1 ovarian is more than 100 µM; with NCI-H23 lung, more than 89.6 µM; in the assay with OVCAR-4 ovarian it was more than 100 µM; with OVCAR-8 ovarian it was more than 100 µM; with RXF 393 renal it was more than 66 µM; in the assay on SK-MEL-5 melanoma it was 50 µM. Further, the values for the TGI with SR leukemia and in the assay with UACC-257 melanoma were more than 100 µM and more than 80.7 µM, respectively.

In the case of `COc1ccc(NC([Se])=NC23CC4CC(CC(C4)C2)C3)cc1`, the GI50 in the assay with IGROV1 ovarian was 1.64 µM; with NCI-H23 lung, 0.456 µM; with OVCAR-4 ovarian it was 0.42 µM; in the assay with OVCAR-8 ovarian, 0.645 µM; in the assay with RXF 393 renal, 1.8 µM; with SK-MEL-5 melanoma, 0.558 µM. Also, the GI50 in the assay with SR leukemia is 1.67 µM; in the assay with UACC-257 melanoma it was 2.03 µM. For the same compound, the TGI in the assay with IGROV1 ovarian was 7.7 µM; in the assay on NCI-H23 lung, 3 µM; with OVCAR-4 ovarian, 3.46 µM; with OVCAR-8 ovarian it was 3.71 µM; in the assay with RXF 393 renal, 4.72 µM; with SK-MEL-5 melanoma it was 1.79 µM. For the same compound, the TGI with SR leukemia was more than 100 µM; with UACC-257 melanoma, 5.44 µM.

In the case of `Cc1ccc2c(-c3ccnc(Nc4ccccc4)n3)c(-c3ccc(F)cc3)nn2n1`, the GI50 is 1.13 µM in the assay on IGROV1 ovarian; 8.25 µM in the assay on NCI-H23 lung; 11.1 µM with OVCAR-4 ovarian; 9.79 µM in the assay with OVCAR-8 ovarian; 3.77 µM in the assay on RXF 393 renal; 4.75 µM with SK-MEL-5 melanoma. Moreover, the GI50 with SR leukemia was 11.7 µM; in the assay on UACC-257 melanoma, 6.85 µM. For the same compound, the TGI was 16.5 µM in the assay with IGROV1 ovarian; more than 25 µM in the assay with NCI-H23 lung; more than 25 µM in the assay on OVCAR-4 ovarian; more than 25 µM in the assay on OVCAR-8 ovarian; more than 18.7 µM with RXF 393 renal; 11.4 µM in the assay with SK-MEL-5 melanoma. The TGI in the assay with SR leukemia was more than 25 µM; with UACC-257 melanoma, 15.1 µM.

Take `O=C(O)CCCSc1ccccc1`: the TGI with IGROV1 ovarian, with NCI-H23 lung, in the assay with OVCAR-4 ovarian, in the assay with OVCAR-8 ovarian, in the assay on RXF 393 renal and in the assay on SK-MEL-5 melanoma was more than 100 µM in each case. In addition, the TGI in the assay on SR leukemia and with UACC-257 melanoma was more than 100 µM in each case.

Take `CC1=C(C(=O)Nc2ccc(Cl)c(Cl)c2)C(c2cccc(Cl)c2)NC(=O)N1` (stereo unspecified): the GI50 in the assay on IGROV1 ovarian is 7.51 µM; with NCI-H23 lung, 12.7 µM; in the assay with OVCAR-4 ovarian it was 14.1 µM; in the assay with OVCAR-8 ovarian it was 14.8 µM; in the assay on RXF 393 renal it was 13.8 µM; in the assay on SK-MEL-5 melanoma it was 8.93 µM. Moreover, the figures for the GI50 in the assay with SR leukemia and in the assay on UACC-257 melanoma were 22.3 µM and 12.2 µM, respectively. Besides, the TGI was 21.6 µM in the assay with IGROV1 ovarian; 28.5 µM in the assay with NCI-H23 lung; more than 50 µM in the assay on OVCAR-4 ovarian; more than 37.7 µM with OVCAR-8 ovarian; 32.6 µM in the assay on RXF 393 renal; 17.4 µM in the assay on SK-MEL-5 melanoma. Besides, the TGI was more than 50 µM in the assay on SR leukemia and 25.6 µM with UACC-257 melanoma.
